Measured values published in patent US20060057153A1, “Method and composition for the inhibition of mitosis” (priority 2002, published 2006).

What was measured:
HeLa cells = test: siRNA depletion in thymidine-synchronized HeLa cells, immunofluorescence staining of metaphase cells, with or without Vinblastine; assay type: cell-based, human; conditions: Buffer-transfected cells
Method: To further analyze the mitotic defects apparent in Bsh3-depleted cells, siRNA depletion was performed using thymidine-synchronized cells. Briefly, HeLa cells were blocked by thymidine 40 hr after siRNA transfection. After 20 hr of thymidine treatment, cells were washed and cultured in thymidine free media for 14 hr, followed by immunofluorescence staining analysis using the anti-centromere antibody, ANA-C (Sigma). Chromosomes and mitotic spindles were localized by Hoechst and anti-α-tubulin staining, respectively. […] To distinguish these two possibilities, siRNA depletion and video-microscopy were performed using a HeLa cell line expressing the histone H2B-GFP fusion protein. While the wild-type cells were able to congress and segregate their chromosomes in 45-60 min, siRNA treated cells (30%) took more than 2 hr for the same process due to the fact that some chromosomes were delayed in alignment at the metaphase plate. […] However, only 0.34% of buffer-treated cells remained in metaphase (Table 1).
To confirm this interpretation, it was analyzed whether human Bsh3 depleted cells were more sensitive to Vinblastine (VBL), a microtubule-disrupting drug. It has been shown that a low concentration of VBL (nM) alters microtubule dynamics without depolymerizing microtubules. As a result, it affects chromosome movement during metaphase and delays chromosome congression. In addition Vinblastine disrupts kinetochore tension without affecting spindle-kinetochore attachment.
siRNA depletion using thymidine-synchronized cells, which were released into culture media with different concentrations of VBL for 14 hr, was followed by immunofluorescence staining as described in the previous section.

S. pombe bir1-46 (Sp287) = test: Growth of bir1-46 on YES plates with thiabendazole; assay type: cell-based; conditions: 10 μg/ml TBZ, permissive temperature (28° C.), 3 days
Method: Briefly, to identify the phenotypes of the temperature sensitive allele, bir1-46, Wild-type and bir1-46 (Sp287) were streaked out on YES plates or 10 μg/ml of thiabendazole (TBZ), followed by incubation at either 28° C. or 32° C. for 3 days. Wild-type, bir1-46, and a rad3Δ were grown in YES medium to mid log phase (O.D.595=0.5-0.6) and then plated on YES plates followed by UV irradiation. Plates were cultured at 28° C. with a foil cover for 1 day and without a foil cover for subsequent 4 days. Colony numbers were calculated and survival rates were determined based on control plates, which were not irradiated. bir1-46 was transformed with vector alone (pUR19), pUR19-bir1^+, pUR19-Bsh3^+, or pUR19-pic1^+. Transformants were streaked out on YES plates followed by incubation at either 28° C. or 34° C. for 3 days. To conduct the high-copy suppressor screen, Sp287 (bir-46) was transformed with either a cDNA or genomic DNA library. Transformants were incubated at 28° C. for 20 hr followed by further incubation at 34° C. for five days.
Given that bir1^+ is required for chromosome segregation and cytokinesis, it is plausible that bir1^+ is also involved in mitotic spindle integrity.

[1] = system: HL-60, a promylocytic cell line; test: Bsh3 expression in HL-60 cells after treatment; assay type: cell-based; conditions: HL60 cells treated with the agent
Source text: In addition to being a marker of tumor aggressiveness and treatment potential, Bsh3 expression can be used as a measurement of the effectiveness of anti-tumor therapy. In the Examples, it is shown that HL-60, a promylocytic cell line, had high levels of Bsh3 expression. […] The reduction in expression correlated with the degree of differentiation, the greater the differentiation, the lower the level of Bsh3 expression. Accordingly, Bsh3 expression can be used to measure the effectiveness of anti-tumor treatment: if Bsh3 expression decreases during treatment, the treatment protocol is effective and can be continued, whereas if Bsh3 expression remains unaltered, a different therapeutic regime or protocol needs to be performed.

CC[C@]1(O)C[C@@H]2CN(CCc3c([nH]c4ccccc34)[C@@](C(=O)OC)(c3cc4c(cc3OC)N(C)[C@H]3[C@@](O)(C(=O)OC)[C@H](OC(C)=O)[C@]5(CC)C=CCN6CC[C@]43[C@@H]65)C2)C1 [VBL, Vinblastine]
% of cells in metaphase (HeLa cells; VBL 0.1 nM for 14 hr): 1.5%
% of cells in metaphase (HeLa cells; VBL 0.5 nM for 14 hr): 1.7%
% of cells in metaphase (HeLa cells; VBL 1 nM for 14 hr): 13.6%

c1ccc2[nH]c(-c3cscn3)nc2c1 [TBZ, Thiabendazole]
growth of bir1-46 (S. pombe bir1-46 (Sp287)): failed to grow

CC1=C(/C=C/C(C)=C/C=C/C(C)=C/C(=O)O)C(C)(C)CCC1 [retenoic acid]
Bsh3 expression [1]: reduction and elimination of Bsh3 expression
